Residues, ends and D or L forms follow the SMILES beside them. *: point of attachment. Succinimide(1-Et,3-yl) = CCN1C(=O)CC(*)C1=O
Biological target: T1, human CRHR2 (Homo sapiens, UniProt Q13324)
T1 construct: expressed in transfected cells
T1 sequence (Q13324 1-411): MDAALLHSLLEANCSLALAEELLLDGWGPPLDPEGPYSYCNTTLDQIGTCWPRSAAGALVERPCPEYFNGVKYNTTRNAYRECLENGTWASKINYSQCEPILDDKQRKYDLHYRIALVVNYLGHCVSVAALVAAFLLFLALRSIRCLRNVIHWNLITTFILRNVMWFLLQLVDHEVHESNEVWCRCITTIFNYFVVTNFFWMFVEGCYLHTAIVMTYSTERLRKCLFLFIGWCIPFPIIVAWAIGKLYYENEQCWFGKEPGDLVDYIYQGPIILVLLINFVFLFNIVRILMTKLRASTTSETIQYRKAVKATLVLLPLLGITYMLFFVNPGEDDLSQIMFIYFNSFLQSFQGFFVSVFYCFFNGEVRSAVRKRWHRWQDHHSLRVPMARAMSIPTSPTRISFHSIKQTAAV
Assay: cAMP assay in h-CRHR2 transfected SK-N-MC cells
Assay type: cell-based
Conditions: Table 13; h-SCP control pA50 minus test compound pA50 within same assay batch
Procedure: The concentration required for 50% maximum effect (A50) was 0.4 nM.
Human CRHR1 (accession number X72304) or CRHR2 (accession number U34587) were cloned into pcDNA3.1/Zeo expression vector and stably transfected into SK-N-MC cells by electroporation. Cells were maintained in MEM w/Earl's Salt with 10% FBS, 50 I.U. penicillin, 50 μg/ml streptomycin, 2 mM L-glutamine, 1 mM sodium pyruvate and 0.1 mM nonessential amino acids, 600 μg/ml G418. Cells were grown at 37° C. in 5% CO2.
Cells were plated in 96-well tissue culture dishes (Biocoat from BD Biosciences) overnight at 50,000 cell/well. Cells were washed with PBS then resuspended in DMEM F-12 without phenol red, containing 10 μM isobutylmethylxanthine (IBMX). Cells were incubated with the peptides at concentrations ranging from 1 pM to 10 μM for 60 min at 37° Celsius. […] Forskolin (10 μM), a direct stimulant of adenylate cyclase, was used as positive control. The assays were stopped by the addition of 0.5 M HCl and mixing by orbital rotation for 2 h at 4° Celsius.
To assess the activity of the inventive peptide at the CRHR2, an intracellular cAMP measurement test using a Flash plate radioactive assay (Catalog No. Cus56088; Perkin Elmer, MA, U.S.A.) was employed.
Transfected SK-N-MC cells were plated in 96-well Biocoat tissue culture dishes (BD Biosciences, San Jose, Calif., U.S.A) overnight at 50,000 cell/well. Cells were first washed with PBS and then suspended with DMEM/F-12 without phenol red, containing […]. Suspended cells were transferred into a 96-well flash plate coated with scintillant fluid. Cells were incubated with peptides ranging from […], for 60 min, at 37° Celsius. Forskolin at 10 μM was used as positive control. After ligand stimulation, cells were lysed by the addition of 0.5M HCl and mixed by orbital rotation for 2 h at 4° Celsius in order to release intracellular cAMP into the media.
Media containing released intracellular cAMP was transferred to a 96-well flash plate coated with scintillant fluid containing an anti-cAMP antibody. In this assay, intracellular cAMP competes with ^125I-labeled cAMP binding to the antibody. To generate a standard curve, cAMP ranging from 2.5 to 250 pmoles/ml was included in the experiment. [^125I]-cAMP was measured on a TopCount scintillation counter (Perkin Elmer, MA, U.S.A).
Individual agonist concentration-response curve data were fitted to the Hill equation, see formula below, using GraphPad Prism (Graphpad Software, La Jolla, Calif., U.S.A.), to provide estimates of agonist concentration needed to generate one-half maximal response (A50), and the maximal asymptote (α) and Hill slope (nH) parameters. In this equation, [A] is the agonist concentration and E is the measured effect:
For display purposes the mean fitted parameter estimates were used to generate a single E/[A] curve shown superimposed on the mean experimental data. Potency estimates for agonists, pA50, are expressed as the negative logarithm of the midpoint of each curve and listed with their standard error of measurement (SEM). Logarithm base 10 of the agonist dose ratio (Log DR) values were calculated by subtraction of the test compound pA50 value from the corresponding h-SCP (SEQ ID NO:1) control pA50 value within the same assay batch. The SEM values of the Log DR values are given by the square root of the sum of the squared SEM values of the h-SCP (SEQ ID NO:1) control and test compound pA50 values.
Human and rat peptides (see Table 10) were used on the stimulation of h-CRHR1 or h-CRHR2 transfected SK-N-MC cells in the cAMP flash plate assay. Peptides were incubated for 1 hr at 37° Celsius. Curves were calculated using non-linear regression sigmoidal concentration-response analysis calculation in GraphPad Prism. The so obtained pA50 values are shown in Table 11 in addition to literature values. […]

SMILES	Log DR
CC[C@H](C)[C@H](NC(=O)[C@H](CCC(N)=O)NC(=O)[C@H](C)NC(=O)[C@H](CCSC)NC(=O)[C@H](CC(C)C)NC(=O)[C@H](Cc1c[nH]cn1)NC(=O)[C@H](C)NC(=O)[C@H](CC(N)=O)NC(=O)[C@H](C)NC(=O)[C@H](CSC1CC(=O)N(CC)C1=O)NC(=O)[C@H](C)NC(=O)[C@H](CCC(N)=O)NC(=O)[C@H](C)NC(=O)[C@H](CCCNC(=N)N)NC(=O)[C@H](CC(C)C)NC(=O)[C@H](CC(N)=O)NC(=O)[C@H](CCCCN)NC(=O)[C@H](C)NC(=O)[C@H](CCCCN)NC(=O)[C@H](C)NC(=O)[C@@H](NC(=O)[C@H](CC(N)=O)NC(=O)[C@H](Cc1ccccc1)NC(=O)[C@H](CC(C)C)NC(=O)[C@H](CC(C)C)NC(=O)[C@H](CC(N)=O)NC(=O)[C@H](CCSC)NC(=O)[C@@H](NC(=O)[C@H](CC(N)=O)NC(=O)[C@@H](NC(=O)[C@@H]1CCCN1C(=O)[C@@H](NC(=O)[C@H](CC(=O)O)NC(=O)[C@H](CC(C)C)NC(=O)[C@H](CO)NC(=O)[C@H](CC(C)C)NC(=O)[C@@H](NC(=O)[C@H](Cc1ccccc1)NC(=O)[C@H](CCCCN)NC(=O)[C@@H](N)[C@@H](C)O)[C@@H](C)O)C(C)C)[C@@H](C)O)[C@@H](C)CC)[C@@H](C)CC)C(N)=O (some centres unmarked) [SEQ ID NO: 46, TKFTLSLDVPTNIMNLLFNIAKAKNLRAQAC(-NES)ANAH LMAQI-NH2] (H-TKFTLSLDVPTNIMNLLFNIAKAKNLRAQAC(Succinimide(1-Et,3-yl))ANAHLMAQI-NH2; N-terminus assumed)	0.04
CC[C@H](C)[C@H](NC(=O)[C@H](CCC(N)=O)NC(=O)[C@H](C)NC(=O)[C@H](CCSC)NC(=O)[C@H](CC(C)C)NC(=O)[C@H](Cc1c[nH]cn1)NC(=O)[C@H](C)NC(=O)[C@H](CC(N)=O)NC(=O)[C@H](C)NC(=O)[C@H](C)NC(=O)[C@H](C)NC(=O)[C@H](CCC(N)=O)NC(=O)[C@H](CSC1CC(=O)N(CC)C1=O)NC(=O)[C@H](CCCNC(=N)N)NC(=O)[C@H](CC(C)C)NC(=O)[C@H](CC(N)=O)NC(=O)[C@H](CCCCN)NC(=O)[C@H](C)NC(=O)[C@H](CCCCN)NC(=O)[C@H](C)NC(=O)[C@@H](NC(=O)[C@H](CC(N)=O)NC(=O)[C@H](Cc1ccccc1)NC(=O)[C@H](CC(C)C)NC(=O)[C@H](CC(C)C)NC(=O)[C@H](CC(N)=O)NC(=O)[C@H](CCSC)NC(=O)[C@@H](NC(=O)[C@H](CC(N)=O)NC(=O)[C@@H](NC(=O)[C@@H]1CCCN1C(=O)[C@@H](NC(=O)[C@H](CC(=O)O)NC(=O)[C@H](CC(C)C)NC(=O)[C@H](CO)NC(=O)[C@H](CC(C)C)NC(=O)[C@@H](NC(=O)[C@H](Cc1ccccc1)NC(=O)[C@H](CCCCN)NC(=O)[C@@H](N)[C@@H](C)O)[C@@H](C)O)C(C)C)[C@@H](C)O)[C@@H](C)CC)[C@@H](C)CC)C(N)=O (some centres unmarked) [SEQ ID NO: 47, TKFTLSLDVPTNIMNLLFNIAKAKNLRC(-NES)QA AANAH LMAQI-NH2] (H-TKFTLSLDVPTNIMNLLFNIAKAKNLRC(Succinimide(1-Et,3-yl))QAAANAHLMAQI-NH2; N-terminus assumed)	−0.03

— US10040838B2, “CRHR2 peptide agonists and uses thereof” (JANSSEN PHARMACEUTICA NV, priority 2008, dated 2018)
